Data published in US20100303790A1, “USE OF BILIVERDIN REDUCTASE (BVR) AND BVR PEPTIDE FRAGMENTS TO TREAT CORONARY DISORDERS” (UNIVERSITY OF ROCHESTER, priority 2009, published 2010).
Entries after “also recorded” stand apart in the source; their conditions may differ.

Assays:
Type in all cases: in vivo, rat
[1] = system: cardiomyocytes in the intact heart; assay: Langendorff perfused heart: apoptosis (TUNEL, genomic DNA fragmentation); conditions: for apoptosis in cardiomyocytes of the perfused heart (TUNEL): 0.1 μM ISO, peptides 25 μM together with ISO
Source text: Analysis of Apoptosis: The terminal deoxyribonucleotide transferase-mediated dUTP nick-end labeling (TUNEL) assay was used to detect in situ DNA fragmentation, using the In Situ Cell Death Detection Kit (Roche) as described previously (Ding et al., “Functional Role of Phosphodiesterase 3 in Cardiomyocyte Apoptosis: Implication in Heart Failure,” Circulation 111:2469-2476 (2005), which are hereby incorporated by reference in their entirety). In addition, the cells were stained for cardiomyocyte-specific sarcomeric α-actinin with the antibody EF-53 to distinguish cardiomyocytes from contaminating fibroblasts; and only EF-53 positive cells were counted. Three independent experiments were performed and an average of 1,000 EF-53 positive cells from random fields were analyzed.
DNA Electrophoresis: Total cellular DNA was isolated from untreated and treated cells by lysis in 10 mM Tris-HCl, pH 7.8; 1 mM, EDTA, 10 mM NaCl, 1% (w/v) SDS and 1 mg/ml proteinase K at 60° C. for 2 hours. The lysate was extracted twice each with phenol-choloroform (1:1, v/v) and chloroform, followed by precipitation with ethanol. The precipitate was collected by centrifugation, washed once in 70% ethanol, and resuspended in TE containing 1 mg/ml RNase at 37° C. for 30 min. DNA was resolved by electrophoresis in 2.0% agarose gels containing ethidium bromide.
(§1) In Vivo Experimental Langendorff Model: Male Sprague-Dawley rats weighing 250-300 g (Charles River, Boston, Mass.) were used in this study; the protocol is based on that described by Tompkins et al., “Mitochondrial Dysfunction in Cardiac Ischemia-Reperfusion Injury: ROS From Complex I, Without Inhibition,” Biochim Biophys Acta 1762:223-231 (2006), which is hereby incorporated by reference in its entirety, with minor modification. The rats were fed a standard rat chow and had water ad libitum. All experiments were approved by the University of Rochester Institutional Animal Care and Use Committee. Rats were given two subcutaneous injections of isoproterenol (ISO) (0.01 mg/kg), 6 hours apart, then anesthetized with freshly prepared Avertin (2,2,2-tribromoethanol, […] injected intraperitoneally), and treated with heparin (5000 U/kg), i.p., to protect the heart against microthrombi. The aorta was cannulated in situ with a 22-gauge needle filled with warm Krebs-Henseleit (KH) buffer. The heart was rapidly transferred (<10 s.) to a perfusion apparatus, and retrograde (Langendorff) perfusion begun with 37° C. KH buffer gassed with 95% O2 plus 5% CO2, in constant flow mode (12 ml/min). […] Hemodynamics and heart rate were recorded by inserting a water-filled balloon connected to a transducer (Radnoti LLC, model no. 159904B) into the left ventricle. […]

isolated perfused heart = assay: Langendorff perfused heart: left ventricle contractile function and heart rate; conditions: for left ventricle contractile function (systolic pressure, developed pressure, dp/dt, -dp/dt): peptide 25 μM with 0.1 μM isoproterenol, vs isoproterenol alone
Source text: In Vivo Experimental Langendorff Model: Male Sprague-Dawley rats weighing 250-300 g (Charles River, Boston, Mass.) were used in this study; the protocol is based on that described by Tompkins et al., “Mitochondrial Dysfunction in Cardiac Ischemia-Reperfusion Injury: ROS From Complex I, Without Inhibition,” Biochim Biophys Acta 1762:223-231 (2006), which is hereby incorporated by reference in its entirety, with minor modification. The rats were fed a standard rat chow and had water ad libitum. All experiments were approved by the University of Rochester Institutional Animal Care and Use Committee. Rats were given two subcutaneous injections of isoproterenol (ISO) (0.01 mg/kg), 6 hours apart, then anesthetized with freshly prepared Avertin (2,2,2-tribromoethanol, […] injected intraperitoneally), and treated with heparin (5000 U/kg), i.p., to protect the heart against microthrombi. The aorta was cannulated in situ with a 22-gauge needle filled with warm Krebs-Henseleit (KH) buffer. The heart was rapidly transferred (<10 s.) to a perfusion apparatus, and retrograde (Langendorff) perfusion begun with 37° C. KH buffer gassed with 95% O2 plus 5% CO2, in constant flow mode (12 ml/min). Perfusion was performed using 0.1 μM ISO or KH buffer as a control; the hBVR-derived peptides KKRILHC^281 (25 μM) or KYCCSRK^296 (25 μM) were included in perfusion medium with or without ISO. Hemodynamics and heart rate were recorded by inserting a water-filled balloon connected to a transducer (Radnoti LLC, model no. 159904B) into the left ventricle. The transducer was connected to a data acquisition system (DATAQ Instrument, Akron Ohio, Model: DI-205). At the end of each experiment, the heart was cut into 5 μm sections for TUNEL study or homogenized for western blots.
The effect of peptides on the integrity of the heart was also examined in the perfusion system, by measuring left ventricle contractile function in the presence of isoproterenol as a function of time.

[2] = Langendorff perfused heart: BVR and HO-2 protein by western blot; conditions: 3 hours perfusion; for HO-2 protein expression: peptide 25 μM with 0.1 μM ISO; for BVR protein expression: peptide 25 μM
Procedure: Western Blot Analysis: Cell lysates were prepared by homogenization in RIPA buffer (40 mM Tris-HCl, pH 7.5, 1 mM EDTA, 1 mM DTT, 0.1 mM Na3VO4, 10 μg/ml aprotinin, 5 μg/ml pepstatin, 20 μg/ml leupeptin, 1 mM bezamidine followed by centrifugation at 800×g for 10 minutes at 4° C. (Ding et al., “Functional Role of Phosphodiesterase 3 in Cardiomyocyte Apoptosis: Implication in Heart Failure,” Circulation 111:2469-2476 (2005), which is hereby incorporated by reference in its entirety). Supernatant proteins were resolved by SDS-PAGE and transferred to nitrocellulose. Western blots were examined using antibodies against β-actin (Cell Signaling), BVR (Huang et al., “Detection of 10 Variants of Biliverdin Reductase in Rat Liver by Two-Dimensional Gel Electrophoresis,” J Biol Chem 264:7844-7849 (1989), which is hereby incorporated by reference in its entirety), HO-1, HO-2 (Panahian et al., “Site of Injury-Directed Induction of Heme Oxygenase-1 and -2 in Experimental Spinal Cord Injury Differential Functions in Neuronal Defense Mechanisms?” J Neurochem 76:539-554 (2001), which is hereby incorporated by reference in its entirety), and cleaved caspase-3 (Cell Signaling, Beverly Mass.). The secondary antibody was horseradish peroxidase-conjugated goat anti-rabbit IgG (1:2,000, Bio-Rad).
as §1

[3] = peptide 25 μM with isoproterenol

Row | Molecule | apoptosis in cardiomyocytes of the perfused heart (TUNEL) [1] | heart rate, left ventricular systolic pressure, development pressure, dp/dt, -dp/dt over the course of the experiment (isolated perfused heart; 0.1 μM isoproterenol perfusion) | fragmentation of genomic DNA from perfused heart ([1]; peptide 25 μM with ISO) | left ventricle contractile function (systolic pressure, developed pressure, dp/dt, -dp/dt) (isolated perfused heart) | change in heart rate observed with isoproterenol alone (isolated perfused heart; [3]) | time after initiating perfusion by which the increased rate of decline was observed (isolated perfused heart; [3]) [min] | HO-2 protein expression [2] | BVR protein expression [2]
1 | CC(C)NCC(O)c1ccc(O)c(O)c1 (centres unmarked) [isoproterenol] | increased apoptosis | declined |  |  |  |  |  | 
2 | KKRILHC (biliverdin reductase peptide) [KKRILHC^281] | increase in apoptosis; also recorded: significant increases in apoptosis |  | fragmentation is detectable | the rate of decline was increased; also recorded: significantly diminished cardiac function | Neither peptide affected the change in heart rate | ≤ 30 | inhibited the BVR-induced HO-2 increase; also recorded: virtually eliminated the induction of HO-2 | do not affect protein expression
3 | KYCCSRK (biliverdin reductase peptide) [KYCCSRK^296] | decreased apoptosis; also recorded: nearly complete reduction in apoptosis |  |  | slowed the decrease in contractile function; also recorded: improved cardiac function | Neither peptide affected the change in heart rate |  | increased HO-2 protein expression; also recorded: greatly enhanced increase of HO-2 protein | do not affect protein expression
